Laboratory results: patent publication US11013726B2 (Arbutus Biopharma Corporation, priority 2016, dated 2021)
Counter-ions that a name gives are not always drawn. Like-named read-outs stand apart in the source and are kept apart here.

System: HBsAg
Assay: HBsAg assay
Format: cell-based, hepatitis B virus
Protocol: Inhibition of HBsAg was determined in HepG2.2.15 cells. Cells were maintained in culture medium containing 10% fetal calf serum, […], Glutamine, penicillin/streptomycin. Cells were seeded in 96-well collagen-coated plate at a density of 30,000 cells/well. Serially diluted compounds were added to cells next day at the final DMSO concentration of 0.5%. Cells were incubated with compounds for 2-3 days, after which medium was removed. Fresh medium containing compounds was added to cells for additional 3-4 days. At day 6 after exposure of compounds, supernatant was collected, the HBsAg immunoassay (microplate-based chemiluminescence immunoassay kits, CLIA, Autobio Diagnosics Co., Zhengzhou, China, Catalog # CL0310-2) was used to determine the level of HBsAg according to manufactory instruction. Dose-response curves were generated and the EC50 value (effective concentrations that achieved 50% inhibitory effect) were determined using XLfit software. In addition, cells were seeded at a density of 5,000 cells/well for determination of cell viability in the presence and absence of compounds by using CellTiter-Glo reagent (Promega). Tables 1-3 show EC50 values obtained by the HBsAg assay for selected compounds.

[1] = read-out: sAg EC50, HepG2.2.15 cells, day 6
[2] = Hepatitis B virus, HepG2.2.15, 144 h, read-out: sAg EC50, μM, HepG2.2.15 cells, day 6

Compound	EC50 [1] [µM]	EC50 [2] [µM]
CC(C)(C)C1Cc2cc3c(cc2-c2cc(=O)c(C(=O)O)cn21)OCCCO3 (single isomer, unassigned) [Example 91, 6-(Tert-butyl)-2-oxo-6,7,11,12-tetrahydro-2H,10H-[1,4]dioxepino[2,3-g]pyrido[2,1-a]isoquinoline-3-carboxylic acid]	0.94	–
COCCCOc1cc2c(cc1Cl)-c1cc(=O)c(N)cn1C(C(C)(C)C)C2 (stereo not drawn) [Example 120, 3-Amino-6-tert-butyl-10-chloro-9-(3-methoxypropoxy)-6H,7H-pyrido[2,1-a]isoquinolin-2-one hydrochloride]	–	3.9
COCCCOc1cc2c(nc1Cl)-c1cc(=O)c(C(=O)O)cn1C1(CCCCC1)CO2 [Example 69, 2′-Chloro-3′-(3-methoxypropoxy)-1′-oxo-6′H,11′H-spiro[cyclohexane-1,7′-dipyrido[1,2-d:2′,3′-f][1,4]oxazepine]-10′-carboxylic acid]	–	0.021
COc1cc2c(cc1Cl)-c1cc(=O)c(C(=O)O)cn1C1CCC1O2 (stereo not drawn) [Example 13, 11-Chloro-10-methoxy-2-oxo-5a,6,7,7a-tetrahydro-2H-benzo[f]cyclobuta[b]pyrido[1,2-d][1,4]oxazepine-3-carboxylic acid]	–	1.8
CC(C)[C@@H]1COc2cc(OCC3CC3)c(Cl)cc2-c2cc(=O)c(C(=O)O)cn21 [Example 35, (R)-2-Chloro-3-(cyclopropylmethoxy)-7-isopropyl-11-oxo-6,7-dihydro-11H-benzo[f]pyrido[1,2-d][1,4]oxazepine-10-carboxylic acid]	–	0.033
COc1ccc2c(c1)OCC(C(C)C)n1cc(C(=O)O)c(=O)cc1-2 (stereo not drawn) [Example 16, 7-Isopropyl-3-methoxy-11-oxo-6,7-dihydro-11H-benzo[f]pyrido[1,2-d][1,4]oxazepine-10-carboxylic acid]	–	3.5
COc1cc2c(cc1Cl)-c1cc(=O)c(C(=O)O)cn1CC(C(C)(C)C)O2 (stereo not drawn) [Example 12, 6-(Tert-butyl)-2-chloro-3-methoxy-11-oxo-6,7-dihydro-11H-benzo[f]pyrido[1,2-d][1,4]oxazepine-10-carboxylic acid]	–	47
COCCCOc1cc2c(cc1Cl)-c1cc(=O)c(NC(=O)OC(C)(C)C)cn1[C@H](C(C)C)CO2 [Example 134, Tert-butyl (R)-(2-chloro-7-isopropyl-3-(3-methoxypropoxy)-11-oxo-6,7-dihydro-11H-benzo[f]pyrido[1,2-d][1,4]oxazepin-10-yl)carbamate]	–	45
COc1cc2c(nc1OC)-c1cc(=O)c(C(=O)O)cn1C(C(C)C)C2 (stereo not drawn) [Example 23, 6-Isopropyl-2,3-dimethoxy-10-oxo-5,10-dihydro-6H-pyrido[1,2-h][1,7]naphthyridine-9-carboxylic acid]	–	0.019
COc1cc2c(n(C)c1=O)-c1cc(=O)c(C(=O)O)cn1[C@H](C(C)C)C2 [Example 165, (S)-6-Isopropyl-3-methoxy-1-methyl-2,10-dioxo-2,5,6,10-tetrahydro-1H-pyrido[1,2-h][1,7]naphthyridine-9-carboxylic acid]	–	4.3
CC(C)[C@@H]1COc2cc(OCCOCCBr)c(Cl)cc2-c2cc(=O)c(C(=O)O)cn21 [Example 41, (R)-3-(2-(2-Bromoethoxy)ethoxy)-2-chloro-7-isopropyl-11-oxo-6,7-dihydro-11H-benzo[f]pyrido[1,2-d][1,4]oxazepine-10-carboxylic acid]	–	0.1
CCOC(=O)c1cn2c(cc1=O)-c1nc(OC)c(OCCCOC)cc1CC2(CC)CC [Example 161, Ethyl 6,6-diethyl-2-methoxy-3-(3-methoxypropoxy)-10-oxo-5,10-dihydro-6H-pyrido[1,2-h][1,7]naphthyridine-9-carboxylate]	–	0.1
CC(C)[C@@H]1COc2cc(OCC(F)(F)F)c(Cl)cc2-c2cc(=O)c(C(=O)O)cn21 [Example 34, (R)-2-Chloro-7-isopropyl-11-oxo-3-(2,2,2-trifluoroethoxy)-6,7-dihydro-11H-benzo[f]pyrido[1,2-d][1,4]oxazepine-10-carboxylic acid]	–	0.086
CC(C)[C@@H]1COc2cc(OCCCO)c(Cl)cc2-c2cc(=O)c(C(=O)O)cn21 [Example 36, (R)-2-Chloro-3-(3-hydroxypropoxy)-7-isopropyl-11-oxo-6,7-dihydro-11H-benzo[f]pyrido[1,2-d][1,4]oxazepine-10-carboxylic acid]	–	0.019
COCCCOc1cc2c(nc1OC)-c1cc(=NN)c(C(=O)NN)cn1[C@H](C(C)C)C2 [Example 152, (6S,10)-10-Hydrazinylidene-6-isopropyl-2-methoxy-3-(3-methoxypropoxy)-5H,6H-pyrido[1,2-h]1,7-naphthyridine-9-carbohydrazide]	–	0.03
CC(C)[C@@H]1COc2cc(OCCCNC(=O)OC(C)(C)C)c(Cl)cc2-c2cc(=O)c(C(=O)O)cn21 [Example 42, (R)-3-(3-((tert-Butoxycarbonyl)amino)propoxy)-2-chloro-7-isopropyl-11-oxo-6,7-dihydro-11H-benzo[f]pyrido[1,2-d][1,4]oxazepine-10-carboxylic acid]	–	0.042
COCCCOc1cc2c(nc1Cl)-c1cc(=O)c(C(=O)O)cn1[C@H](CCO)CO2 [Example 80, (R)-2-Chloro-7-(2-hydroxyethyl)-3-(3-methoxypropoxy)-11-oxo-6,7-dihydro-11H-dipyrido[1,2-d:2′,3′-f][1,4]oxazepine-10-carboxylic acid]	–	0.26
COCCCOc1cc2c(cc1Cl)-c1cc(=O)c(-c3ncccn3)cn1C(C(C)(C)C)C2 (stereo not drawn) [Example 132, 6-Tert-butyl-10-chloro-9-(3-methoxypropoxy)-3-(pyrimidin-2-yl)-6H,7H-pyrido[2,1-a]isoquinolin-2-one]	–	0.078
COCCCOc1cc2c(nc1OC)-c1cc(=O)c(C(=O)O)cn1C(C)(C(C)(C)C)C2 (single isomer, unassigned) [Example 159, 6-(Tert-butyl)-2-methoxy-3-(3-methoxypropoxy)-6-methyl-10-oxo-5,10-dihydro-6H-pyrido[1,2-h][1,7]naphthyridine-9-carboxylic acid]	0.0009	–
CC(C)[C@@H]1CCc2cc3c(nc2-c2cc(=O)c(C(=O)O)cn21)OCCO3 [Example 170, (S)-6-Isopropyl-2-oxo-2,6,7,8,11,12-hexahydro-[1,4]dioxino[2′,3′:5,6]pyrido[2,3-c]pyrido[1,2-a]azepine-3-carboxylic acid e]	–	5
COc1cc2c(cc1Cl)-c1cc(=O)c(C(=O)O)cn1[C@H](CC(C)C)CO2 (single isomer, unassigned) [Example 7]	–	0.61
CC(C)COc1cc2c(nc1C1CC1)-c1cc(=O)c(C(=O)O)cn1[C@H](C(C)C)CO2 [Example 76, (R)-2-Cyclopropyl-3-isobutoxy-7-isopropyl-11-oxo-6,7-dihydro-11H-dipyrido[1,2-d:2′,3′-f][1,4]oxazepine-10-carboxylic acid]	–	0.86
CC(C)[C@@H]1COc2cc(N3CCOCC3)c(Cl)cc2-c2cc(=O)c(C(=O)O)cn21 [Example 62, (R)-2-Chloro-7-isopropyl-3-morpholino-11-oxo-6,7-dihydro-11H-benzo[f]pyrido[1,2-d][1,4]oxazepine-10-carboxylic acid]	–	0.21
COCCCOc1cc2c(cc1Cl)-c1cc(=O)c(P(=O)(O)O)cn1C(C(C)(C)C)C2 (stereo not drawn) [Example 107, (6-(Tert-butyl)-10-chloro-9-(3-methoxypropoxy)-2-oxo-6,7-dihydro-2H-pyrido[2,1-a]isoquinolin-3-yl)phosphonic acid]	–	2.5
